Test results: patent publication US20170362210A1, “ANTI-ESTROGENIC COMPOUNDS” (PFIZER INC., priority 2015, published 2017)
Read-outs that look alike come from different tables or passages of the source.

Tests used:
[1] = test system: MCF-7 breast cancer cells; assay: Inhibition of E2-stimulated proliferation of MCF-7 breast cancer cells; type: cell-based, human; settings: 100 pM E2, hormone-depleted medium, 6-8 days
Procedure: Proliferation of MCF-7 breast cancer cells was measured using a fluorescent DNA binding dye 6-8 days after treatment in triplicate with representative compounds in the presence of 100 pM E2 in hormone-depleted medium. IC50's were calculated from individual experiments as in Example 25.

[2] = test system: AP activity in ECC-1 cells; assay: Alkaline phosphatase (AP) assay in ECC-1 cells co-treated with 500 pM E2; type: cell-based, human; settings: 3 days
Procedure: (§1) Method for performing the alkaline phosphatase (AP) assay. ECC-1 cells (American Type Culture Collection, Manassas, Va.) were maintained in RPMI medium plus 10% fetal bovine serum at 37° C. At the beginning of the assay trypsinized cells were resuspended in RPMI medium plus 5% charcoal dextran stripped serum (CDSS, (Hyclone, Logan, Utah)) and plated at a density of 25-50 k cells per well into a 96-well plate for at least 6 hours. Representative compounds were diluted in serum-free medium and added 1:1 to plated cells in replicate wells (2.5% CDSS final). Plates were incubated for 3 days at 37° C. and subsequently frozen at −80° C. to lyse cells after removing the medium. Thawed plates were incubated with a chromogenic substrate of AP, p-nitrophenyl phosphate (Invitrogen, Grand Island, N.Y.), for 40 minutes at 40° C. Absorbances were read at 405 nm using a plate spectrophotometer. AP activity was normalized to 500 pM 17β-estradiol (E2), reported as the maximum activity observed for each individual experiment, regardless of dose.
AP activity was assayed as in Example 28 but cells were co-treated with 500 pM E2.

[3] = test system: estrogen-responsive reporter gene (ERE-tk109-Luc) in MCF-7 cells; assay: Inhibition of E2-induced transcription, ERE-tk109-Luc reporter gene in MCF-7 cells; type: cell-based, human; settings: 100 pM 17β-estradiol (E2), 18-22 hours, read-out: IC50, inhibition of E2-induced transcription in breast cells
Procedure: Representative compounds were tested for their inhibitory activity of estrogen according to the assay methods described in Hodges-Gallagher, L., Valentine, C. V., El Bader, S. and Kushner, P. J. (2007) “Histone Deacetylase Inhibitors Enhance the Efficacy of Hormonal Therapy Agents on Breast Cancer Cells and Blocks Anti-estrogen-Driven Uterine Cell Proliferation” Breast Cancer Res Treat, November; 105(3):297-309. Specifically, an estrogen-responsive reporter gene (ERE-tk109-Luc) was transiently transfected into MCF-7 cells and treated with anti-estrogens in triplicate in the presence of 100 pM 17β-estradiol (E2) for 18-22 hours. Luciferase activity was normalized to activity of E2 alone and IC50's were calculated using the least squares fit method.

[4] = test system: AP activity in ECC-1 cells; assay: Alkaline phosphatase (AP) assay in ECC-1 uterine cells, induction of AP activity; type: cell-based, human; settings: 3 days, normalized to 500 pM E2, maximum activity observed regardless of dose
Procedure: as §1

ERα = target: T1, ERα (Homo sapiens, UniProt P03372); assay: ERα expression in MCF-7 cell lysates (immunoblot); type: cell-based; settings: MCF-7 cells, 100 nM compound, serum-free medium, 24 hours, immunoblot band intensity
T1 construct: ERα expression was detected in MCF-7 cell lysates treated with 100 nM antiestrogens in serum-free medium for 24 hours; endogenous in cells; host or cells: MCF-7
T1 sequence (P03372 1-595): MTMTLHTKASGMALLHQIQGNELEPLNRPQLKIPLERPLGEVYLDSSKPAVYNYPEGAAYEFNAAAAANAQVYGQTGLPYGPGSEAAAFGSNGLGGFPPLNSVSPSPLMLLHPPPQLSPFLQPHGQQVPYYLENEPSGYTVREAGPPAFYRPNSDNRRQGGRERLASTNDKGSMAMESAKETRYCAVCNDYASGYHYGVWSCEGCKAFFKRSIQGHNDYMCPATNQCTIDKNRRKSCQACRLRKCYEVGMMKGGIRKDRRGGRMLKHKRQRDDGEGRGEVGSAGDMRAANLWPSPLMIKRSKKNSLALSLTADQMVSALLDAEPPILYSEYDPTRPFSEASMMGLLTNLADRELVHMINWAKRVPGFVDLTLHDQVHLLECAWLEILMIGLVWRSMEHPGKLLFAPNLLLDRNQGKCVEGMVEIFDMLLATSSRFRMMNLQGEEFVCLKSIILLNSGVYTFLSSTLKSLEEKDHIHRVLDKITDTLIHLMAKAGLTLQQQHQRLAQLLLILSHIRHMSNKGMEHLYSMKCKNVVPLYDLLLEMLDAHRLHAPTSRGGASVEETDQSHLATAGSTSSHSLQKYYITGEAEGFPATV
Procedure: ERα expression was detected in MCF-7 cell lysates treated with 100 nM antiestrogens in serum-free medium for 24 hours and immunoblotted with an antibody specific to ERα.
Band intensity was normalized relative to vehicle for each individual experiment and listed in Table 3 (Relative change ERα levels (% vehicle)).

[5] = Homo sapiens, MCF7, MCF-7 cells

With `CCCN1CC(Oc2ccc(C3Oc4cc(O)ccc4C(C)=C3c3ccc(O)cc3)cc2F)C1` (single isomer, unassigned) [Compound 109, 2-(3-fluoro-4-((1-propylazetidin-3-yl)oxy)phenyl)-3-(4-hydroxyphenyl)-4-methyl-2H-chromen-7-ol] the IC50 ([1]; MCF-7 cells) was 40 nM, the “AP activity (% E2), cells co-treated with 500 pM E2” value (“AP activity (% E2)” below) [2] was 42 % E2 and the IC50 ([3]; MCF-7 cells) was 109 nM. The “Induction of AP activity in uterine cells (% E2)” value (“Induction of AP activity … (% E2)” below) [4] was 18 % E2.

With `CCCN1CC(Oc2ccc(C3Oc4cc(O)ccc4C(C)=C3c3ccccc3C(C)C)cc2)C1` (centres unmarked) [Compound 119, 3-(2-isopropylphenyl)-4-methyl-2-(4-((1-propylazetidin-3-yl)oxy)phenyl)-2H-chromen-7-ol] the IC50 [1, 5] was 33 nM, the “AP activity (% E2)” value [2] was 18 % E2 and the “Relative change ERα levels (% vehicle)” value (ERα) was 36 % veh. The IC50 [3, 5] was 15 nM and the “Induction of AP activity … (% E2)” value [4] was 44 % E2.

With `CC1=C(c2ccc(O)cc2)C(c2ccc(OC3CN(CCC(F)(F)F)C3)cc2)Oc2cc(O)ccc21` (single isomer, unassigned) [Compound 110, 3-(4-hydroxyphenyl)-4-methyl-2-(4-((1-(3,3,3-trifluoropropyl)azetidin-3-yl)oxy)phenyl)-2H-chromen-7-ol] the IC50 [1, 5] was 216 nM, the “AP activity (% E2)” value [2] was 36 % E2 and the “Relative change ERα levels (% vehicle)” value (ERα) was 104 % veh. For the same compound, the IC50 ([3]; MCF-7 cells) was 14 nM and the “Induction of AP activity … (% E2)” value [4] was 35 % E2.

In the case of `CCCN1CC(Oc2ccc(C3Oc4cc(O)ccc4C(C)=C3c3ccccc3)cc2)C1` (single isomer, unassigned) [Compound 117, 4-methyl-3-phenyl-2-(4-((1-propylazetidin-3-yl)oxy)phenyl)-2H-chromen-7-ol], the IC50 ([1]; MCF-7 cells) is reported as 33 nM, the “AP activity (% E2)” value [2] is reported as 8 % E2 and the “Relative change ERα levels (% vehicle)” value (ERα) is reported as 45 % veh. The IC50 ([3]; MCF-7 cells) was 4 nM and the “Induction of AP activity … (% E2)” value [4] was 16 % E2.

For `CCCN1CC(Oc2ccc(C3Oc4cc(O)ccc4C(C)=C3c3ccc(O)cc3)cc2)C1` (centres unmarked) [Compound 104, 3-(4-hydroxyphenyl)-4-methyl-2-(4-((1-propylazetidin-3-yl)oxy)phenyl)-2H-chromen-7-ol], the IC50 [1, 5] was 6 nM, the “AP activity (% E2)” value [2] was 4 % E2 and the “Relative change ERα levels (% vehicle)” value (ERα) was 44 % veh. The IC50 [3, 5] was 2 nM and the “Induction of AP activity … (% E2)” value [4] was 5 % E2.

In the case of `CCCN1CC(Oc2ccc(C3Oc4cc(O)ccc4C(C)=C3c3ccc(F)cc3Cl)cc2)C1` (centres unmarked) [Compound 116, 3-(2-chloro-4-fluorophenyl)-4-methyl-2-(4-((1-propylazetidin-3-yl)oxy)phenyl)-2H-chromen-7-ol], the IC50 [1, 5] is reported as 5 nM, the “AP activity (% E2)” value [2] is reported as 24 % E2 and the IC50 [3, 5] is reported as 5 nM. For the same compound, the “Induction of AP activity … (% E2)” value [4] was 9 % E2.

For `CC1=C(c2ccc(O)cc2)C(c2ccc(OC3CN(CCC(F)(F)F)C3)cc2)Oc2cc(O)ccc21` (single isomer, unassigned) [Compound 111, 3-(4-hydroxyphenyl)-4-methyl-2-(4-((1-(3,3,3-trifluoropropyl)azetidin-3-yl)oxy)phenyl)-2H-chromen-7-ol], the IC50 ([1]; MCF-7 cells) was greater than 300 nM, the “AP activity (% E2)” value [2] was 61 % E2 and the “Relative change ERα levels (% vehicle)” value (ERα) was 82 % veh. The IC50 ([3]; MCF-7 cells) was 165 nM and the “Induction of AP activity … (% E2)” value [4] was 32 % E2.

In the case of `CCCN1CC(Oc2ccc(C3Oc4cc(O)ccc4C(C)=C3c3ccc(O)cc3)cc2)C1` (single isomer, unassigned) [Compound 106, 3-(4-hydroxyphenyl)-4-methyl-2-(4-((1-propylazetidin-3-yl)oxy)phenyl)-2H-chromen-7-ol], the IC50 ([1]; MCF-7 cells) is reported as 114 nM, the “AP activity (% E2)” value [2] is reported as 44 % E2 and the “Relative change ERα levels (% vehicle)” value (ERα) is reported as 53 % veh. The IC50 ([3]; MCF-7 cells) was 54 nM and the “Induction of AP activity … (% E2)” value [4] was 17 % E2.

`CCCN1CC(Oc2ccc(C3Oc4cc(O)ccc4C(C)=C3c3ccc(F)cc3)cc2)C1` (centres unmarked) [Compound 115, 3-(4-fluorophenyl)-4-methyl-2-(4-((1-propylazetidin-3-yl)oxy)phenyl)-2H-chromen-7-ol] was tested, and the IC50 [1, 5] was 15 nM, the “AP activity (% E2)” value [2] was 42 % E2 and the IC50 [3, 5] was 10 nM. The “Induction of AP activity … (% E2)” value [4] was 20 % E2.

For `CCCN1CC(Oc2ccc(C3Oc4cc(O)ccc4C(C)=C3c3ccccc3Cl)cc2)C1` (centres unmarked) [Compound 120, 3-(2-chlorophenyl)-4-methyl-2-(4-((1-propylazetidin-3-yl)oxy)phenyl)-2H-chromen-7-ol], the IC50 [1, 5] was 10 nM, the “AP activity (% E2)” value [2] was 14 % E2 and the “Relative change ERα levels (% vehicle)” value (ERα) was 61 % veh. For the same compound, the IC50 [3, 5] was 8 nM and the “Induction of AP activity … (% E2)” value [4] was 12 % E2.

With `CCCN1CC(Oc2ccc(C3Oc4cc(O)ccc4C(C)=C3c3ccccc3)cc2)C1` (centres unmarked) [Compound 114, 4-methyl-3-phenyl-2-(4-((1-propylazetidin-3-yl)oxy)phenyl)-2H-chromen-7-ol] the IC50 [1, 5] was 14 nM, the “AP activity (% E2)” value [2] was 23 % E2 and the IC50 [3, 5] was 5 nM. The “Induction of AP activity … (% E2)” value [4] was 15 % E2.

`CCCN1CC(Oc2ccc(C3Oc4cc(O)ccc4C(C)=C3c3ccc(O)cc3)cc2F)C1` (centres unmarked) [Compound 107, 2-(3-fluoro-4-((1-propylazetidin-3-yl)oxy)phenyl)-3-(4-hydroxyphenyl)-4-methyl-2H-chromen-7-ol] was tested, and the IC50 [1, 5] was 13 nM, the “AP activity (% E2)” value [2] was 4 % E2 and the IC50 [3, 5] was 5 nM. For the same compound, the “Induction of AP activity … (% E2)” value [4] was 3 % E2.

`CCCN1CC(Oc2ccc(C3Oc4cc(O)ccc4C(C)=C3c3ccc(O)cc3)cc2F)C1` (single isomer, unassigned) [Compound 108, 2-(3-fluoro-4-((1-propylazetidin-3-yl)oxy)phenyl)-3-(4-hydroxyphenyl)-4-methyl-2H-chromen-7-ol] was tested, and the IC50 ([1]; MCF-7 cells) was 9 nM, the “AP activity (% E2)” value [2] was 4 % E2 and the IC50 ([3]; MCF-7 cells) was 1 nM. For the same compound, the “Induction of AP activity … (% E2)” value [4] was 3 % E2.
